These results are taken from patent publication US11044909B2, “Composition for destruction of microalgae or sphaerocarpus” (CUREARTH, INC., priority 2015, dated 2021).

Data set [1] deals with Microcystis aeruginosa. The experiment in a line: Microalgae-destroying effect by IC50 measurement (cell count). The conditions noted are these: Microcystis aeruginosa, 120 h; Table 1, 3,4-dichlorobenzylamines; 0.1-20 uM, cultured 5 days; read-out: IC50 Microcystis aeruginosa. Type of data set: cell-based. The procedure:
(§1) The IC50 value was obtained according to Equation 1:
(§2) The algicidal activity of each compound was calculated using Equation 2: Algicidal activity (%)=(1−Tt/Ct)×100 <Equation 2>
(§3) In Equation 2, T (treatment group) and C (control group) represent algae densities in cell counts when each compound was inoculated and was not inoculated, respectively, and t represents the number of days which had passed after the inoculation.
(§4) First, the above-listed microalgae were cultured in a culture flask at a temperature of about 20° C. under light conditions, and a medium used was Guillard's f/2 medium which is commonly used in the art (Guillard R R L and Keller M D. Culturing dinoflagellates. In: Spector (Ed.), Dinoflagellates. New York: Academic Press; 1984, 391442).
Microcystis aeruginosa was treated with Compounds 1 to 3, 5 to 10, 12, 13, 17 to 43, and 45 to 51 synthesized in Examples 1 to 3, 5 to 10, 12, 13, 17 to 43, and 45 to 51 at concentrations of 0.1 uM, 0.2 uM, 0.5 uM, 1 uM, 2 uM, 5 uM, 10 uM, 15 uM, and 20 uM and then cultured for 5 days.
(§5) Control groups were not treated with any of the compounds synthesized in the above-identified examples. After incubation, the number of cells of each alga was counted using a Burker-Tukr hemocytometer, and IC50 values were calculated according to Equation 1 using SigmaPlot Version 11.2 software (Standard curve: the four-parameter logistic curve).

In data set [2] the test system is Cochlodinium Polykrikoides. Described as above. Type of data set: cell-based. Conditions: Margalefidinium polykrikoides, 24 h; Table 1, 3,4-dichlorobenzylamines; 0.1-5 uM, cultured 1 day; read-out: IC50 Cochlodinium Polykrikoides. The procedure: as §1, §2, §3, §4
(§6) After the cultured microalgae were transferred onto a 24-well plate, Chattonella Marina, Heterosigma circularisquama, Cochlodinium Polykrikoides, and Heterosigma akashiwo, which were in an exponential growth phase, were treated with Compounds 1 to 3, 5 to 10, 12, 13, 17 to 43, and 45 to 47 synthesized in Examples 1 to 3, 5 to 10, 12, 13, 17 to 43, and 45 to 47 at concentrations of 0.1 uM, 0.2 uM, 0.5 uM, 1 uM, 2 uM, and 5 uM, and then cultured for 1 day.
as §5

Data set [3] concerns Microcystis aeruginosa. The experiment in a line: Microalgae-destroying effect of Compound 2, viable cell counts. Type of data set: cell-based. Conditions: 0.5 μM, 1 μM, and 2 μM, observed for 2 days; FIG. 3. The procedure: To investigate a microalgae-destroying effect of Compound 2 synthesized in Example 2, culture solutions of Microcystis aeruginosa (40 mL; initial population number: 100×10^4/mL) in DMSO and BG11 medium were each treated with solutions of Compound 2 at 0.5 μM, 1 μM, and 2 μM and observed for 2 days. A culture solution of the microalgae not treated with a solution of Compound 2 was used as a control group.

Data set [4] concerns Heterosigma Akashiwo. The data set can be described thus: Microalgae-destroying effect by IC50 measurement (cell count). Type of data set: cell-based. Conditions: 24 h, Table 1, 3,4-dichlorobenzylamines, 0.1-5 uM, cultured 1 day, read-out: IC50 Heterosigma Akashiwo. The method, then: (§7) The IC50 value was obtained according to Equation 1: […]
as §4, §6, §5

Data set [5] deals with Heterocapsa Circularisquama. Described as above. Type of data set: cell-based. The conditions noted are these: 24 h, Table 1, 3,4-dichlorobenzylamines, 0.1-5 uM, cultured 1 day, read-out: IC50 Heterocapsa Circularisquama. The procedure:
as §7, §4, §6, §5

The subject of data set [6] is Chattonella Marina. The description is as above. Type of data set: cell-based. The conditions noted are these: 24 h, Table 1, 3,4-dichlorobenzylamines, 0.1-5 uM, cultured 1 day, read-out: IC50 Chattonella Marina. The method, then:
as §7, §4, §6, §5

In data set [7] the test system is Danio rerio. The data set can be described thus: Acute toxicity test on Danio rerio. Type of data set: in vivo. The conditions noted are these: 15 μM, 2 weeks; FIG. 5. The method, then:
An acute toxicity test on Danio rerio (zebrafish) was performed using compounds 33 and 35 synthesized in Examples 33 and 35. In particular, 2-cm-sized Danio rerio, which had been 3 months since hatching, was acclimatized for 14 days before the start of the experiment. The Danio rerio were feed twice a day during the acclimation period. Next, solutions of Compounds 33 and […] were prepared at concentrations of 0, 5, 10, 15, 20, 25, and 30 μM. Culture solutions of the Danio rerio (10 L, initial population number: 10 zebrafish in total (1 zebrafish/L)) were treated for 2 weeks with the solutions of Compounds 33 and 35 at different concentrations to thereby perform the acute toxicity test.

The subject of data set [8] is Daphnia magna. The data set can be described thus: Acute toxicity test on Daphnia magna. Type of data set: in vivo. Conditions: 5 μM, 2 days; FIG. 4. The method, then:
An acute toxicity test was performed on Daphnia magna (water flea) using Compounds 33 and 35 synthesized in Examples 33 and 35. In particular, culture solutions of Daphnia magna (200 mL, 30 animals) in DMSO and M4 medium were treated with solutions of Compounds 33 and 35 at 5 μM, 10 μM, and 15 μM for 2 days.

For `CCN(CC)CCCNCc1ccc(Cl)c(Cl)c1` [Compound 2, N′-(3,4-Dichloro-benzyl)-N,N-diethyl-propane-1,3-diamine], the IC50 (as a rule, the point on the concentration scale where inhibition reaches its midpoint) is 570 nM in data set [1]; 327 nM in data set [2]; 1300 nM in data set [4]; 3400 nM in data set [5]; 2600 nM in data set [6]. For the same compound, in data set [3], the “viable cell counts of Microcystis with respect to time” value is listed as “high algicidal effect”.
Regarding `Clc1ccc(CNC2CCCC2)cc1Cl` [Compound 33, Cyclopentyl-(3,4-dichloro-benzyl)-amine], the survival ratio in data set [7] is 100%; in data set [8] it was “about 100%”. In addition, the IC50 in data set [1] came out at 19500 nM; in data set [2], 360 nM; in data set [4] it was 243 nM; in data set [5], 1040 nM; in data set [6], 320 nM.
